Test [1] deals with MOLM-13 cells. The experiment in a line: Cell proliferation assay MOLM-13, method 2 (CellTiterGlo). It counts as cell-based. The settings on record: Homo sapiens, MOLM-13, 72 h; acute myeloid leukaemia cells, 500 cells/well, 1536-well, 3-day incubation, CellTiterGlo ATP readout. As for the experimental part: Alternatively, the MOLM-13 cells (DSMZ, ACC 554) were seeded at a concentration of 500 cells/well in 5 μl of growth medium (RPMI1640, 10% FCS) on 1536-well microtitre plates (method 2).
In method 2, after 3-day incubation with the inhibitor, the ATP concentration was determined as readout for the cell number using the CellTiterGlo kit (Promega). The measurement was carried out using a luminometer.
The substances were tested in the cell lines in Table 2, which represent the indications specified by way of example: […]

The target in test [2] is T1, BRD4 bromo domain 2 [BRD4(2)] (Homo sapiens, UniProt O60885).
T1 construct: N-terminally His6-tagged BRD4(2) (amino acids 357-445); made in house; host or cells: E. coli
The experiment in a line: BRD4(2)/acetylated peptide H4 TR-FRET binding assay. Conditions: His6-BRD4(2) (aa 357-445) vs acetylated histone H4 peptide. The source says:
To assess the BRD4(2) binding strength of the substances described in this application, the ability thereof to inhibit the interaction between BRD4(2) and acetylated histone H4 in a dose-dependent manner was quantified.
(§1) For this purpose, a time-resolved fluorescence resonance energy transfer (TR-FRET) assay was used, which measures the binding between N-terminally His6-tagged BRD4(2) (amino acids 357-445) and a synthetic acetylated histone H4 (Ac-H4) peptide with sequence SGRGK(Ac)GGK(Ac)GLGK(Ac)GGAK(Ac)RHRKVLRDNGSGSK-biotin. The recombinant BRD4(2) protein produced in-house according to Filippakopoulos et al., Cell, 2012, 149:214-231 was expressed in E. coli and purified by means of (Ni-NTA) affinity and (Sephadex G-75) size exclusion chromatography. The Ac-H4 peptide can be purchased, for example, from Biosyntan (Berlin, Germany).
(§2) In the assay, typically 11 different concentrations of each substance (0.1 nM, 0.33 nM, 1.1 nM, 3.8 nM, 13 nM, 44 nM, 0.15 μM, 0.51 μM, 1.7 μM, 5.9 μM and 20 μM) were analysed as duplicates on the same microtitre plate. For this purpose, 100-fold concentrated solutions in DMSO were prepared by serial dilutions (1:3.4) of a 2 mM stock solution into a clear, 384-well microtitre plate (Greiner Bio-One, Frickenhausen, Germany). From this, 50 nl were transferred into a black test plate (Greiner Bio-One, Frickenhausen, Germany). The test was started by the addition of 2 μl of a 2.5-fold concentrated BRD4(2) solution (final concentration typically 100 nM in the 5 μl of reaction volume) in aqueous assay buffer [50 mM HEPES pH 7.5, 50 mM sodium chloride (NaCl); 50 mM potassium fluoride (KF); 0.25 mM CHAPS and 0.05% serum albumin (BSA)] to the substances in the test plate. This was followed by a 10-minute incubation step at 22° C. for the pre-equilibration of putative complexes between BRD4(2) and the substances.
(§3) The mixture was then incubated in the dark at 22° C. for one hour and then at 4° C. for at least 3 hours and for no longer than overnight. The formation of BRD4(2)/Ac-H4 complexes was determined by the measurement of the resonance energy transfer from the streptavidin-Eu chelate to the anti-6His-XL665 antibody present in the reaction. For this purpose, the fluorescence emission was measured at 620 nm and 665 nm after excitation at 330-350 nm in a TR-FRET measuring instrument, for example a Rubystar or Pherastar (both from BMG Lab Technologies, Offenburg, Germany) or a Viewlux (Perkin-Elmer). The ratio of the emissions at 665 nm and at 622 nm was taken as an indicator of the amount of BRD4(2)/Ac-H4 complexes formed.
The data (ratios) obtained were normalized, with 0% inhibition corresponding to the mean from the measurements for a set of controls (typically 32 data points) in which all the reagents were present. In these, in place of test substances, 50 nl of DMSO (100%) were used. Inhibition of 100% corresponded to the mean from the measurements for a set of controls (typically 32 data points) in which all the reagents except BRD4(2) were present. The IC50 was determined by regression analysis based on a 4-parameter equation (minimum, maximum, IC50, Hill; Y=Max+(Min−Max)/(1+(X/IC50)Hill)).

Test [3] deals with T2, BRD4 bromo domain 1 [BRD4(1)] (Homo sapiens, UniProt O60885).
T2 construct: N-terminally His6-tagged BRD4(1) (amino acids 67-152); made in house; host or cells: E. coli
The experiment in a line: BRD4(1)/acetylated peptide H4 TR-FRET binding assay. Conditions: His6-BRD4(1) (aa 67-152) vs acetylated histone H4 peptide.
From the text: To assess the BRD4(1) binding strength of the substances described in this application, the ability thereof to inhibit the interaction between BRD4(1) and acetylated histone H4 in a dose-dependent manner was quantified.
as §1, with “BRD4(1)” for “BRD4(2)”, “67-152)” for “357-445)”, “GRGK(Ac)GGK(Ac)GLGK(Ac)GGAK(Ac)RHGSGSK-biotin.” for “SGRGK(Ac)GGK(Ac)GLGK(Ac)GGAK(Ac)RHRKVLRDNGSGSK-biotin.”
as §2, with “concentrated BRD4(1)” for “concentrated BRD4(2)”, “typically 10” for “typically 100”, “chloride (NaCl),” for “chloride (NaCl); 50 mM potassium fluoride (KF);”, “between BRD4(1)” for “between BRD4(2)”, “substances. Subsequently, 3 μl of a solution of 1.67 times the concentration (in assay buffer) consisting of Ac-H4 peptide (83.5 nM) and TR-FRET detection reagents [16.7 nM anti-6His-XL665 and 3.34 nM streptavidin cryptate (both from Cisbio Bioassays, Codolet, France), and 668 mM potassium fluoride (KF)] were added.” for “substances.”
as §3, with “BRD4(1)/Ac-H4” for “BRD4(2)/Ac-H4”, “cryptate” for “chelate”
The data (ratios) obtained were normalized, with 0% inhibition corresponding to the mean from the measurements for a set of controls (typically 32 data points) in which all the reagents were present. In these, in place of test substances, 50 nl of DMSO (100%) were used. Inhibition of 100% corresponded to the mean from the measurements for a set of controls (typically 32 data points) in which all the reagents except BRD4(1) were present. The IC50 was determined by regression analysis based on a 4-parameter equation (minimum, maximum, IC50, Hill; Y=Max+(Min−Max)/(1+(X/IC50)Hill).

What is called IC50 is the point on the concentration scale where inhibition reaches its midpoint. Read a high IC50 as a need for much substance.

Regarding `CC(C)S(=O)(=O)c1cccc(Nc2ccc3c(n2)N(C2CCN(CCC(F)(F)F)CC2)[C@H](C)C(=O)N3C)c1` [Example 30, (3R)-6-{[3-(Isopropylsulphonyl)phenyl]amino}-1,3-dimethyl-4-[1-(3,3,3-trifluoropropyl)piperidin-4-yl]-3,4-dihydropyrido[2,3-b]pyrazin-2(1H)-one], the IC50 turned out to be 73 nM in test [1], 114 nM in test [2] and 20 nM in test [3].

The values are drawn from patent publication US20170121322A1, “BET-PROTEIN INHIBITING 3,4-DIHYDROPYRIDO[2,3-B]PYRAZINONES WITH META-SUBSTITUTED AROMATIC AMINO- OR ETHER GROUPS” (Bayer Pharma Aktiengesellschaft, priority 2014, published 2017).
